Measured values published in patent publication US12083129B2, “Treatment of breast cancer using combination therapies comprising an ATP competitive AKT inhibitor, a CDK4/6 inhibitor, and fulvestrant” (Genentech, Inc., priority 2019, dated 2024).

System: breast cancer cell lines
Assay: single agent sensitivity of breast cancer cell lines
Format: cell-based
Details: FIG. 1A and 1B
Experimental: Cell lines were treated with agents described herein (e.g. ipatasertib, palbociclib, and fulvestrant). […] (See FIG. 1A and FIG. 1B). There was synergy between ipatasertib and palbociclib as show by the BLISS scores of FIGS. 2A, 2B, 2C, and 2D. […] The percent weight loss resulting from treatment is shown by FIGS. 8A and 8B.

SMILES: CC(C)NC[C@@H](C(=O)N1CCN(c2ncnc3c2[C@H](C)C[C@H]3O)CC1)c1ccc(Cl)cc1 [ipatasertib, (S)-2-(4-chlorophenyl)-1-(4-((5R,7R)-7-hydroxy-5-methyl-6,7-dihydro-5H-cyclopenta[d]pyrimidin-4-yl)piperazin-1-yl)-3-(isopropylamino)propan-1-one]
- single agent sensitivity of breast cancer cell lines: differential single agent sensitivity

SMILES: CC(=O)c1c(C)c2cnc(Nc3ccc(N4CCNCC4)cn3)nc2n(C2CCCC2)c1=O [palbociclib, 6-acetyl-8-cyclopentyl-5-methyl-2-{[5-(piperazin-1-yl)pyridin-2-yl]amino}pyrido[2,3-d]pyrimidin-7(8H)-one]
- single agent sensitivity of breast cancer cell lines: differential single agent sensitivity
